Patent US20260200920A1, “SUBSTITUTED AMINOPYRIDINE COMPOUNDS FOR USE AS AKT1 INHIBITORS” (Atavistik Bio, Inc., priority 2023, published 2026)

Tests used:
[1] = biological target: T1, human recombinant kinase full-length AKT1 E17K (Homo sapiens, UniProt P31749, E17K); assay: AKT1 E17K kinase assay (TR-FRET, Lance); assay type: biochemical; details: 0.6 nM AKT1 E17K, 50 nM Ulight-CREBtide, either 50 μM ATP or 2 mM ATP, 60 min at RT
T1 construct: Purified human recombinant kinase full-length AKT1 E17K was expressed in insect cells; made in house; host or cells: insect cells
T1 sequence (P31749 whole entry E17K): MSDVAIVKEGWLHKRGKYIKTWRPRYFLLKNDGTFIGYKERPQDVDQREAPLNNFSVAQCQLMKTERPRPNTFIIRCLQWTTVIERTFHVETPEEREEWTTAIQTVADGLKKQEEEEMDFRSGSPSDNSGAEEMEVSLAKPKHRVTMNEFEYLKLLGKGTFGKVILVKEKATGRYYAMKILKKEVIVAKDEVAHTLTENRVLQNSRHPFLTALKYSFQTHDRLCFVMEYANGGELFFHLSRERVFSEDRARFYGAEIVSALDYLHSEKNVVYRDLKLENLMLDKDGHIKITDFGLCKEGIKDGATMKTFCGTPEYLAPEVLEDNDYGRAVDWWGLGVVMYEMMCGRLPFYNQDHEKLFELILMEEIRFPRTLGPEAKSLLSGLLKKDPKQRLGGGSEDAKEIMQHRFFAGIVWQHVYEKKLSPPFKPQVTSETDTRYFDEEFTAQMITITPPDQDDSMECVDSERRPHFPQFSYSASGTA
Protocol: AKT1 E17K kinase assay: Inhibitory effects of compounds on AKT1 E17K were undertaken in a 10-pt dose response kinase activity assay measuring phospho-peptide product formation based on TR-FRET signal as described in the following paragraph.
(§1) Purified human recombinant kinase full-length AKT1 E17K was expressed in insect cells and activated in vitro by PDPK1. Ulight™-CREBtide (PerkinElmer, catalog number TRF0107) was used as the peptide substrate. The reaction buffer consisted of 50 mM HEPES pH 7.5, 10 mM MgCl2, 0.01% Triton X-100, 0.01% BSA, 2 mM DTT, 0.6 nM AKT1 E17K, 50 nM Ulight™-CREBtide and either 50 μM ATP or 2 mM ATP. The compound solution was prepared as 10 mM DMSO stock. For the assay, a 1.3 serial dilution 10-pt dose response of test compounds, in duplicate, for each concentration were dispensed into a 384-well plate (Corning, catalog number 4513). Final DMSO concentration in the assay was 1%. The enzyme mixture (5 μL, 1.2 nM) were added and the mixture was incubated for 15 min at RT prior to the start of the kinase reaction by the addition of 5 μL substrate mixture (100 nM Ulight™-CREBtide). The reaction was stopped after 60 min of incubation at RT by the addition of 10 μL of Detection Mix (PerkinElmer, #CR97-100) consisting of Europium-anti-phospho-CREB (Ser133) (Perkin Elmer, catalog number TRF0200). Incubation with the detection mix for a further 60 min allowed binding of antibody to the phospho-Ulight™ CREBtide. The fluorescence emissions at 620 nm and 665 nm after excitation at 350 nm was measured using Envision reader. The ratio of the emissions at 665 nm and at 620 nm provided the measure for the amount of phosphorylated CREBtide product of AKT1 E17K kinase activity. To determine the IC50 values, the data was normalized (enzyme reaction without inhibitor=0% inhibition, all other assay components but no enzyme=100% inhibition) and IC50 values were calculated by a 4-parameter fit using an in-house developed protocol.
Table 9 assigns each compound a code for potency in the AKT1 E 17K kinase assay: A, B, or C. According to the code, A represents an IC50 value <500 nM; B represents an IC50 value from ≥500 nM to <2000 nM; and C represents an IC50 value ≥2000 nM.

[2] = biological target: T2, human recombinant kinase full-length wildtype AKT1 (Homo sapiens, UniProt P31749); assay: AKT1 kinase assay (wildtype, TR-FRET, Lance); assay type: biochemical; details: 0.6 nM wildtype AKT1, 50 nM Ulight-CREBtide, either 50 μM ATP or 2 mM ATP, 60 min at RT
T2 construct: Purified human recombinant kinase full-length wildtype AKT1 was expressed in insect cells; made in house; host or cells: insect cells
T2 sequence (P31749 whole entry): as the sequence (P31749 whole entry E17K) above, with K17E counted along it
Protocol: AKT1 kinase assay: Inhibitory effects of compounds on wildtype AKT1 were undertaken in a 10-pt dose response kinase activity assay measuring phospho-peptide product formation based on TR-FRET signal as described in the following paragraph.
as §1, with “full-length wildtype” for “full-length”, “AKT1” for “AKT1 E17K”, “AKT1,50” for “AKT1 E17K, 50”, “1:3” for “1.3”
The symbol +++ represents an IC50 value <20 μM; the symbol ++ represents an IC50 value from ≥20 μM to 80 μM.

Row | SMILES | IC50 [1] [nM] | IC50 [2] [nM]
1 | Cc1cc(C2CN(CC34CCC(C(=O)O)(CC3)CC4)C2)ccc1-n1c(-c2cccnc2N)nc2ccc(-c3ccccc3F)nc21 [Compound I-200] | 500 to 2000 | < 20000
2 | Nc1ncccc1-c1nc2ccc(-c3ccccc3F)nc2n1-c1ccc(C2CN(CC34CCC(C(=O)O)(CC3)CC4)C2)cc1 [Compound I-203] | < 500 | < 20000
3 | Nc1ncccc1-c1nc2ccc(-c3ccccc3)cc2n1-c1ccc(NC(=O)[C@H]2CC[C@H](C(=O)O)CC2)nc1 [Compound I-32, (1r,4r)-4-((5-(2-(2-aminopyridin-3-yl)-6-phenyl-1H-benzo[d]imidazol-1-yl)pyridin-2-yl)carbamoyl)cyclohexane-1-carboxylic acid] | 500 to 2000 | < 20000
4 | Cc1nc(NC(=O)[C@H]2CC[C@H](C(=O)O)CC2)ccc1-n1c(-c2cccnc2N)nc2ccc(-c3ccccc3)nc21 [Compound I-118, (1r,4r)-4-((5-(2-(2-aminopyridin-3-yl)-5-phenyl-3H-imidazo[4,5-b]pyridin-3-yl)-6-methylpyridin-2-yl)carbamoyl)cyclohexane-1-carboxylic acid] | < 500 | < 20000
5 | Nc1ncccc1-c1nc2ccc(-c3ccccc3)nc2n1-c1ccc(NC(=O)C2CC3(CC(C(=O)O)C3)C2)c(F)c1 (stereo not drawn) [Compound I-47, 6-((4-(2-(2-aminopyridin-3-yl)-5-phenyl-3H-imidazo[4,5-b]pyridin-3-yl)-2-fluorophenyl)carbamoyl)spiro[3.3]heptane-2-carboxylic acid] | < 500 | < 20000
6 | CC(C)(C(=O)O)C1CCN(c2ccc(-n3c(-c4cccnc4N)nc4ccc(-c5ccccc5)nc43)cn2)C1 (stereo not drawn) [Compound I-39, 2-(1-(5-(2-(2-aminopyridin-3-yl)-5-phenyl-3H-imidazo[4,5-b]pyridin-3-yl)pyridin-2-yl)pyrrolidin-3-yl)-2-methylpropanoic acid] | ≥ 2000 | < 20000
7 | Cc1cc(C2(C)CN(C[C@H]3CC[C@H](C(=O)O)CC3)C2)ccc1-n1c(-c2cccnc2N)nc2ccc(-c3ccccc3)nc21 [Compound I-156] | 500 to 2000 | < 20000
8 | CC1(C(=O)O)CCN(C(=O)c2ccc(-n3c(-c4cccnc4N)nc4ccc(-c5ccccc5)nc43)cn2)CC1 [Compound I-23, 1-(5-(2-(2-aminopyridin-3-yl)-5-phenyl-3H-imidazo[4,5-b]pyridin-3-yl)picolinoyl)-4-methylpiperidine-4-carboxylic acid] | ≥ 2000 | 20000 to 80000
9 | Nc1ncccc1-c1nc2ccc(-c3ccccc3)nc2n1-c1ccc(NC(=O)[C@H]2CC[C@H](C(=O)O)CC2)nc1 [Compound I-10, (1r,4r)-4-((5-(2-(2-aminopyridin-3-yl)-5-phenyl-3H-imidazo[4,5-b]pyridin-3-yl)pyridin-2-yl)carbamoyl)cyclohexane-1-carboxylic acid] | < 500 | < 20000
10 | CC1(C)CN(C(=O)c2ccc(-n3c(-c4cccnc4N)nc4ccc(-c5ccccc5)nc43)cn2)CCC1C(=O)O (stereo not drawn) [Compound I-24, 1-(5-(2-(2-aminopyridin-3-yl)-5-phenyl-3H-imidazo[4,5-b]pyridin-3-yl)picolinoyl)-3,3-dimethylpiperidine-4-carboxylic acid] | ≥ 2000 | < 20000
11 | Nc1ncccc1-c1nc2ccc(-c3ccccc3)nc2n1-c1ccc(NC(=O)C23CC(C(=O)O)(C2)C3)nc1 [Compound I-7, 3-((5-(2-(2-aminopyridin-3-yl)-5-phenyl-3H-imidazo[4,5-b]pyridin-3-yl)pyridin-2-yl)carbamoyl)bicyclo[1.1.1]pentane-1-carboxylic acid] | ≥ 2000 | 20000 to 80000
12 | Cc1cc(C2CN(C[C@H]3CC[C@@H](C(=O)O)CC3)C2)ccc1-n1c(-c2cccnc2N)nc2ccc(-c3ccccc3)cc21 [Compound I-222] | 500 to 2000 | < 20000
